One data set deals with PCSK9. Description: PCSK9 reduction after daily oral CIVI 008/SNAC capsules for 42 days (Example 1). The class given is in vivo, Cynomolgus monkey. The note with it: daily oral for 42 days. The method, then:
(§1) Toxicity results: The study was conducted to GLP standards and monitored the following toxicity parameters throughout the study (pre-dose, day 14, 29, 42, and end of recovery): • Hematology: red blood cell (erythrocyte) count, hemoglobin, hematocrit, mean corpuscular volume, mean corpuscular hemoglobin, mean corpuscular hemoglobin, concentration, red cell distribution width, absolute reticulocyte count, platelet count, white blood cell (leukocyte) count, absolute neutrophil count, absolute lymphocyte count, absolute monocyte count, absolute eosinophil count, absolute basophil count, absolute large unstained cell count, blood smear. • Clinical chemistry, PCSK9 and lipids: urea nitrogen, creatinine, total protein, albumin, globulin, albumin:globulin ratio, total bilirubin, aspartate aminotransferase, alanine aminotransferase, alkaline phosphatase, gamma glutamyltransferase, creatine kinase, calcium, inorganic phosphorus, sodium, potassium, chloride, high density lipoproteins, low density lipoprotein, very low density lipoprotein, total cholesterol, triglycerides.

The test system of a further data set is plasma LDL-cholesterol. Description: Plasma LDL-cholesterol after daily oral CIVI 008/SNAC capsules for 42 days and recovery (Example 1). The format is in vivo, Cynomolgus monkey. Conditions: for LDL-c in control animals: control capsules, throughout the study. As to the method:
as §1

Data set [1] is described as follows: Oral capsule PK study of CIVI 008 without GalNAc using 5-CNAC as carrier (Example 5). The format is in vivo, Cynomolgus monkey. Conditions: single oral capsule, 20 mg/200 mg 5-CNAC; larger. The text has this: As shown in previous Examples 1 and 3, orally dosed CIVI 008 with GalNAc is rapidly internalized in the liver by the GalNAc receptor, with very little CIVI 008 escaping into general circulation at doses below that required for saturation of the GalNAc receptor. In many instances the objective is to target genes that are expressed in organs other than the liver. […] The objective of this study was to determine the systemic exposure of orally administered CIVI 008 without the GalNAc conjugate, and to compare the exposure to that of a similar oral dose of CIVI 008 with GalNAc.
Study outline: Dry blended capsules (20 mg CIVI 008 without GalNAc/200 mg 5-CNAC) were manufactured from uniform dry blended formulations, that were filled into enterically coated Size 0, hard shell gelatin capsules. A total of 10 Cynomolgus monkeys (5 males and 5 females) were each administered a single capsule by oral gavage, and blood samples for PK analysis were drawn pre-dose and 0.5, 1.5, 3 and 5 hours post-dosing.

A short description of data set [2]: Liver and intestinal tissue concentrations of CIVI 008 (Example 1). The class given is in vivo, Cynomolgus monkey.
Text: The purpose of this study was to provide information on the capsule dosing of CIVI 008 for further clinical trials in humans.
Data set [3] is described as follows: Repeat-dose toxicity study to GLP standards, oral capsule (Example 1). The note with it: cynomolgus monkey, in vivo. As to the method: as §1
A short description of data set [4]: Oral capsule toxicokinetic study of CIVI 008 using 5-CNAC as carrier (Example 3). The note with it: for increase of AUC with dose of CIVI 008 / increase of Cmax with dose of CIVI 008: constant dose of 5-CNAC. The format is in vivo, Cynomolgus monkey. The text has this: The objectives of this study were to determine the ability of 5-CNAC [Disodium N-(5-Chorosalicyloyl)-8-aminocaprylate] to facilitate oral uptake of CIVI 008 and to determine the manufacture method and dosing paradigm of CIVI 008/5-CNAC capsules that provide the most efficient oral uptake of CIVI 008 when administered to Cynomolgus monkeys of Mauritian origin.
Study outline: A total of 10 Cynomolgus monkeys (5 males and 5 females) were each dosed with 2 group A capsules on Monday and Wednesday in week 1, followed by 4 days of dosing holiday. This Monday and Wednesday dosing scheme was continued in weeks 2, 3, 5, 6, 7, 8, 13, 14, 15 and 17 using 2 group B-capsules per dose occasion in week 2, and 1 capsule of groups C to K per dose occasion in their respective weeks. During the dosing period, blood samples for PK analysis were drawn pre-dose and 0.5, 1.5, 3 and 5 hours post-dosing on Mondays and Wednesdays. Samples for clinical chemistry and hematology (see example 1) were taken pre-study and end of study.

Data set [5] is described as follows: Half-life and accumulation of CIVI 008 in the liver. The class given is in vivo, non-human primates. The note with it: expected after 7-weeks of once daily dosing.
The conditions of data set [6]: cynomolgus monkey, in vivo, po.
Experimental: The objectives of this study were to evaluate the toxicity and reversibility of CIVI 008 and to determine the pharmacology, plasma exposure and target organ accumulation of CIVI 008 when administered daily by oral capsule to the Cynomolgus monkey of Mauritian origin for 42 days compared to administration by the subcutaneous route administered once every two weeks (investigated previously).
Oral Capsule: Capsules containing CIVI 008 (10 mg)/SNAC (100 mg) were manufactured as uniform dry blend formulations, that were filled into Size 4 hard shell gelatin capsules that were enterically coated post fill.
Data set [7] in a line: Oral capsule PK study of an oligo against Factor VII, with or without GalNAc, using 5-CNAC as carrier (Example 6). The note with it: for PK parameters compared to the corresponding CIVI 008 oligos: with and without GalNac. The format is in vivo, Cynomolgus monkey. As to the method: Study outline: Dry blended capsules (20 mg Factor FVII with or without GalNac/200 mg 5-CNAC) were manufactured from uniform dry blended formulations, that were filled into enterically coated Size 0, hard shell gelatin capsules. A total of 10 Cynomolgus monkeys (5 males and 5 females) were each administered a single capsule of either oligo by oral gavage, and blood samples for PK analysis were drawn pre-dose and 0.5, 1.5, 3 and 5 hours post-dosing.

Setting [8] is: dose increased further than 25 mg.
The mark [9] stands for this setting: oral, two group A capsules (each 10 mg CIVI 008/100 mg 5-CNAC, size 4).
The mark [10] stands for this setting: size 4 (group A) to size 0 (group B) capsules.
[11] abbreviates: single oral capsule, 20 mg/200 mg 5-CNAC.
Where [12] appears, read: single oral capsule, 20 mg/200 mg 5-CNAC, higher.

Read-outs that look alike come from different tables or passages of the source. {GalNAc3NHC6} = trivalent GalNAc moiety with NHC6 linker, (GalNAc3)(NHC6); l = locked nucleic acid (LNA); d = 2'-deoxy (DNA) A value given as a limit tells only on which side of the number the result lay.

For `O=C([O-])CCCCCCCNC(=O)c1ccccc1O.[Na+]` [SNAC, sodium 8-(2-hydroxybenzamido)octanoate, reference compound], the “mean PCSK9 reductions in control animals” value in the data set with PCSK9 is “comparatively small”. Further, the “LDL-c in control animals” value in the data set with plasma LDL-cholesterol is on record as “fluctuated around baseline values”.

Turning to “CIVI 008 without GalNAc: 16 nt LNA gapmer AbsAbsTbsdGsdCsdTsdAsdCsdAsdAsdAsdAsdCsCbsCbsAb, SEQ ID NO 134, no GalNAc moiety (AATGCTACAAAACCCA; sugars from the 5' end l3 d10 l3, all phosphorothioate, methylation of C not given here)”, in [1], the “AUC relative to a similar dose of CIVI 008 with GalNac” value is listed as around 8 fold and the “Cmax relative to a similar dose of CIVI 008 with GalNac” value is recorded as around 8 fold.

With “CIVI 008: GalNac conjugated LNA-gapmer antisense oligonucleotide targeting PCSK9 (SEQ ID NO: 134), cepadacursen formulated for oral administration (AATGCTACAAAACCCA; LNA gapmer with GalNAc conjugate, pattern not given here)”, the “concentrations of CIVI 008 in intestinal segments” value in [2] (all segments, after QD oral dosing for 42 days) is recorded as “measurable concentrations”. Further, the “concentration of CIVI 008 in the liver during the recovery period” value in data set [2] (declined during recovery, 3-week timepoint) is recorded as “still present in measurable quantities”. Further, in data set [2] (measured at the end of the dosing period), the “difference in liver concentrations between the SQ and PO arms” value is given as “approximately one”. The “mean PCSK9 reductions in control animals” value with PCSK9 is given as “comparatively small”. Moreover, in the data set on plasma LDL-cholesterol, the “LDL-c in control animals” value is on record as “fluctuated around baseline values”. Further, the “return of LDL to baseline” value in the data set on plasma LDL-cholesterol (end of recovery) is reported as “had yet to fully return to baseline”. For the same compound, the “LDL levels after the end of dosing” value in the data set with plasma LDL-cholesterol (recovery period after 42 days of dosing) was “maintained for two weeks post-dosing”. Further, the “macroscopic or microscopic findings (local or systemic effects)” value in data set [3] is given as “no macroscopic or microscopic findings”. Moreover, the “local histopathological changes in the intestinal tract (duodenum, jejunum, ileum and colon)” value in data set [3] (po) is “no local histopathological changes”. In data set [4] (setting [8]), the “increase of AUC with dose of CIVI 008” value is given as “more than dose proportional” and the “increase of Cmax with dose of CIVI 008” value was “more than dose proportional”. Further, in [4] (up to 25 mg CIVI 008), the “increase of AUC with dose of CIVI 008” value is reported as “dose proportionally” and the “increase of Cmax with dose of CIVI 008” value was “dose proportionally”. In data set [4] (dose range 5 mg to 30 mg), the “AUC profiles, dry blended vs freeze-dried capsules” value is on record as “very similar” and the “Cmax profiles, dry blended vs freeze-dried capsules” value is given as “very similar”. The “effect of manufacture method on intestinal absorption” value in data set [4] (dry blending vs co-dissolution followed by freeze-drying) is “did not appear to affect”. In data set [4] (oral capsules, vs Example 1), the “AUC0-5 with 5-CNAC carrier compared to a similar dose using SNAC as carrier” value was “increase” and the “Cmax with 5-CNAC carrier compared to a similar dose using SNAC as carrier” value is given as “increase”. In [4] (setting [9]), the “concentrations of CIVI 008 in the plasma” value is listed as “measurable concentrations” and the “mean Tmax” value is recorded as at most 30 min. Moreover, in data set [4] (setting [10]), the “mean Tmax on increasing capsule size” value is listed as “didn't change” and the “mean plasma PK profile on increasing capsule size” value is “didn't change”. The “liver concentration relative to its steady state level” value in data set [5] was above 80%. For the same compound, in data set [6], the “form of CIVI 008 detected in plasma (HPLC peak)” value was “mixture of parent compound and metabolites”; the “form of CIVI 008 detected in plasma (HPLC retention time)” value is “absorbed intact”; the “mean Tmax” value is on record as at most 30 min.

“GalNac conjugated Factor FVII oligo: 13 nt ASO against Factor VII, SEQ ID NO 158, with (GalNAc3)(NHC6) moiety (antisense GCACCACGGTCCA; sugars from the 5' end l2 d8 l3, all phosphorothioate, 5' {GalNAc3NHC6}*, methylation of C not given here)”: the “concentrations in the plasma” value in [7] (setting [11]) was “measurable concentrations”. Moreover, the “PK parameters compared to the corresponding CIVI 008 oligos” value in data set [7] is given as “quite similar”.

As to “unconjugated Factor FVII oligo: 13 nt ASO against Factor VII, SEQ ID NO 158, GbsCbsdAsdCsdCsdAsdCsdGsdGsdTsCbsCbsAb (antisense GCACCACGGTCCA; sugars from the 5' end l2 d8 l3, all phosphorothioate, methylation of C not given here)”, the “concentrations in the plasma” value in data set [7] (setting [11]) is “measurable concentrations”. Further, in data set [7] (setting [12]), the “AUC relative to the GalNac conjugated Factor FVII oligo” value is on record as around 3.5 fold and the “Cmax relative to the GalNac conjugated Factor FVII oligo” value is around 3.5 fold. Besides, the “PK parameters compared to the corresponding CIVI 008 oligos” value in [7] was “quite similar”.

The values are drawn from patent US20240207409A1, “ORAL DELIVERY OF OLIGONUCLEOTIDES” (CiVi Biopharma, Inc., priority 2021, published 2024).
